# “And” between values parts separate entries of the source, which are not always exact repeats. Equal values may be shown once.
# Assays:
# Format in all cases: cell-based
# AaegOR11 = biological target: T1, AaegOR11 (Aedes aegypti, UniProt Q16PN4); test: Two-electrode voltage clamp of Xenopus laevis oocytes expressing AaegOR11/Orco (blends, unitary compounds, concentration-response); details: for Raw data (Responses in nA), unitary compounds of blend Terpenes 3: individual oocytes 1-9 (replicates); for Normalized response, Average, unitary compounds of blend Terpenes 3: average over oocytes (9; fenchones 6); for Normalized response, unitary compounds of blend Terpenes 3: individual oocytes, normalized to cis-Decahydro-1-napthol = 100
# T1 sequence (Q16PN4 1-420): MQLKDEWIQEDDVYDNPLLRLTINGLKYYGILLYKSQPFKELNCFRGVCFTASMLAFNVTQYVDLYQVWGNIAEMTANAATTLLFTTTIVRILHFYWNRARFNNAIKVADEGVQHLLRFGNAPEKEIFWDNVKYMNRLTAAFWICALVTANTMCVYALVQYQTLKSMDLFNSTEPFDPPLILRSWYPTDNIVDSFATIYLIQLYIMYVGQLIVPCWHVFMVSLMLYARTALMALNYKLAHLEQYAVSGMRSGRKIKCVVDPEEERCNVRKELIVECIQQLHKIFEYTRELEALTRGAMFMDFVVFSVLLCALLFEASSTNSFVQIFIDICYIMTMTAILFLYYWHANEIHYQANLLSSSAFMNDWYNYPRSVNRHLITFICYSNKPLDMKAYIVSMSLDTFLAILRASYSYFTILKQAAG
# T1 sequence (Q178U6 1-478 partner): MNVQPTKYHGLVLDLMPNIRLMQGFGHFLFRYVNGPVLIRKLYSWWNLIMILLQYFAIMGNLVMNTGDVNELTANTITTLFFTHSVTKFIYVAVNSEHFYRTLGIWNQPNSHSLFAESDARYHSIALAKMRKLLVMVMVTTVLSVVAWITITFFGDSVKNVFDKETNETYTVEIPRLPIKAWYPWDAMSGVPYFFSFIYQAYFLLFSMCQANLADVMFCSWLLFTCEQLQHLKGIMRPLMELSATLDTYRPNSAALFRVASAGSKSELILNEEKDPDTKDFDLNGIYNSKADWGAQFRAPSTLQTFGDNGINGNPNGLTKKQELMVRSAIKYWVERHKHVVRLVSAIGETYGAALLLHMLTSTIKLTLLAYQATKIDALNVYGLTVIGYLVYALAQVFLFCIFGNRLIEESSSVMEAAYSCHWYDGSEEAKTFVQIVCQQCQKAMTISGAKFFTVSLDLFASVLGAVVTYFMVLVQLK
# Excerpt: (§1) The coding regions of ten AaegOR genes of interest (S3 File) and AaegOrco were synthesized by Twist Bioscience (San Francisco, CA, USA) and cloned into the pENTR plasmid. The Gateway LR directional cloning system (Invitrogen Corp., Carlsbad, CA, USA) was utilized to subclone AaegOR coding regions into the pSP64t-RFA oocyte expression plasmid. Plasmids were purified using the GeneJet Plasmid Miniprep Kit (ThermoFisher Scientific, Waltham, MA, USA). Purified plasmids were sequenced in both directions to confirm coding regions.
# (§2) Chemical compounds (S6 File) used in the deorphanization of AaegORs were purchased from Acros Organics (Morris, NJ, USA), Alfa Aesar (Ward Hill, MA, USA), and ThermoFisher Scientific (Waltham, MA, USA) at the highest purity available. Compounds were stored as 1M stocks in 100% DMSO. Serial dilutions of each compound were prepared in 10% DMSO and blended by chemical class.
# (§3) pSP64t-RFA: AaegOR clones were linearized using Xbal, and cRNAs were synthesized using the mMESSAGE mMACHINE ® SP6 kit (Life Technologies, Carlsbad, CA, USA). Xenopus laevis stage V-VII oocytes purchased from Xenopus1 (Dexter, MI, USA) were stored at 18°C in Incubation medium (ND96 96 with 5% dialyzed horse serum, 50μg/mL gentamycin, 100μg/mL streptomycin, 100μg/mL penicillin, and 550μg/mL sodium pyruvate). 30nL of cRNA was injected into multiple oocytes using a microinjection syringe pump (World Precision Instruments, Sarasota, FL, USA) maintained at 18°C for 48–72 hrs. Odorant blends were perfused across individual oocytes for 10–15 seconds, held at a resting membrane potential of -80 mV using an OC-725C oocyte clamp (Warner Instruments, LLC, Hamden, CT, USA). Induced currents were measured indirectly using the two-electrode voltage clamp technique (TEVC). Following each stimulus, currents were allowed to return to baseline before further stimulation. Data was captured using the Digidata 1550 B digitizer and PClamp10 software (Molecular Devices, San Jose, CA, USA). Concentration-response curves were generated by perfusing unitary odorants over oocytes at increasing concentrations from [10^-3M] to [10^-9M]. Data were analyzed using GraphPad Prism 8 (GraphPad Software Inc., La Jolla, CA, USA). At least two biological replicates were conducted at each concentration and for each compound. Data for at least seven oocytes responding to each compound was analyzed (S7 File).
# AaegOR31 = biological target: T2, AaegOR31 (Aedes aegypti, UniProt Q16JU0); test: Two-electrode voltage clamp of Xenopus laevis oocytes expressing AaegOR31/Orco (blends, unitary compounds, concentration-response); details: AaegOR31; compounds of blend Alcohols 1; individual oocytes (Oocyte 1-8)
# T2 sequence (Q16JU0 1-381): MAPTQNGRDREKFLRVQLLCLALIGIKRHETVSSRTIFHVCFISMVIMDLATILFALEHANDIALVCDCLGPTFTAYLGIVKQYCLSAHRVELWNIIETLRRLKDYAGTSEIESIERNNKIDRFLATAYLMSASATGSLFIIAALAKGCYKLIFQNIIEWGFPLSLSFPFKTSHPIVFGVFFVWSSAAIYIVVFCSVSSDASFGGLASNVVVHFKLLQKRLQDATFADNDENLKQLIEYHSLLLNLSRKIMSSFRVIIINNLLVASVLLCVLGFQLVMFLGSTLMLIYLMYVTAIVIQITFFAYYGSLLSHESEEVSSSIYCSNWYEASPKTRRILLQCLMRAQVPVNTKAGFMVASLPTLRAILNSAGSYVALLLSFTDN
# T2 sequence (Q178U6 1-478 partner): T1 sequence (Q178U6 1-478 partner)
# Excerpt: as §1, §2, §3
# AaegOR15 = biological target: T3, AaegOR15 (Aedes aegypti, UniProt A0A6B9QIR2); test: Two-electrode voltage clamp of Xenopus laevis oocytes expressing AaegOR15/Orco (blends, unitary compounds, concentration-response); details: unitary compounds of Alcohols 2; individual oocytes 1-10 (replicates)
# T3 sequence (A0A6B9QIR2 1-390): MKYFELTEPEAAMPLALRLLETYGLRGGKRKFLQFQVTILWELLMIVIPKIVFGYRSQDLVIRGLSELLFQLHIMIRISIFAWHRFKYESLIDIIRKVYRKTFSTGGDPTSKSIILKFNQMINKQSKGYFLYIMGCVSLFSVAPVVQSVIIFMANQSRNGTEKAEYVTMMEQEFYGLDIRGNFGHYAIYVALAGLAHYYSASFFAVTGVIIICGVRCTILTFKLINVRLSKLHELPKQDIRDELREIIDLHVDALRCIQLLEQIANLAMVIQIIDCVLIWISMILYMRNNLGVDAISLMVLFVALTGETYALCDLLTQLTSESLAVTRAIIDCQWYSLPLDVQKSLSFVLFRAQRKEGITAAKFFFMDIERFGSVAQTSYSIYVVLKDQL
# T3 sequence (Q178U6 1-478 partner): T1 sequence (Q178U6 1-478 partner)
# Excerpt: as §1, §2, §3
# AaegOR8 = biological target: T4, AaegOR8 (Aedes aegypti, UniProt Q16MN0); test: Two-electrode voltage clamp of Xenopus laevis oocytes expressing AaegOR8/Orco (blends, unitary compounds, concentration-response); details: Alcohols 2 unitary compounds
# T4 sequence (Q16MN0 32-422): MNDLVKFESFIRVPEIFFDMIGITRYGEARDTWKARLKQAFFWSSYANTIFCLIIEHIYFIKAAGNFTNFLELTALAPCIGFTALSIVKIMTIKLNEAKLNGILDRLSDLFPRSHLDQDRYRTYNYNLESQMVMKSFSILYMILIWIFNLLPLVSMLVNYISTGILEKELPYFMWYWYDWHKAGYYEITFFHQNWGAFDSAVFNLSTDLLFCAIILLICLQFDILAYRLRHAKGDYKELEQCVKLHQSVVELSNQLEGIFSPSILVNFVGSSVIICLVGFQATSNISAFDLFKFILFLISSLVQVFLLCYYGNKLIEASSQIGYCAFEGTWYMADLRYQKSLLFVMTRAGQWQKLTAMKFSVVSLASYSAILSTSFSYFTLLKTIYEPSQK
# T4 sequence (Q178U6 1-478 partner): T1 sequence (Q178U6 1-478 partner)
# Excerpt: as §1, §2, §3
structure (smiles),measurement,setting,value
CC(C)=CCC/C(C)=C\CO [Nerol],"Raw data (Responses in nA), unitary compounds of blend Terpenes 3",AaegOR11,0 nA
CCCCC/C=C\C=C\C(=O)OCC [Ethyl-2-trans-4-cis-decadienoate],"Normalized response, Average, unitary compounds of blend Terpenes 3",AaegOR11,0.0
same,"Raw data (Responses in nA), unitary compounds of blend Terpenes 3",AaegOR11,0 nA
same,"Normalized response, unitary compounds of blend Terpenes 3",AaegOR11,0.0
CC(C)(C)c1ccc(O)cc1 [4-tert butylphenol],"Raw Data (Responses in nA), Alcohols 1 unitary compounds",AaegOR31,0.0 nA (7×) and 10.0 nA
CC12CCC(C1)C(C)(C)C2=O (stereo not drawn) [fenchone],Secondary Ligand,"AaegOR11; AaegOR11, secondary ligand identified during the functional characterizations",fenchone
"CC1(C)C(=O)[C@]2(C)CCC1C2 (single isomer, unassigned; (-)) [(-) Fenchone]","Normalized response, Average, unitary compounds of blend Terpenes 3",AaegOR11,23.3
same,"Normalized response, unitary compounds of blend Terpenes 3",AaegOR11,20.0 and 25.0 (2×) and 10.0 (2×) and 50.0
C=C1CC/C=C(\C)CC[C@@H]2[C@@H]1CC2(C)C [beta-caryophyllene],"Raw data (Responses in nA), unitary compounds of blend Terpenes 3",AaegOR11,10 nA (2×) and 0 nA (6×) and 20 nA
OC1CCCCC1 [cyclohexanol],"Raw data (Responses in nA), compounds of blend Alcohols 2",AaegOR15,5.0 nA and 10.0 nA and 30.0 nA and 55.0 nA (2×) and 0.0 nA and 40.0 nA (2×) and 80.0 nA and 35.0 nA
same,Raw data (Responses in nA) Oocyte 1,AaegOR8; oocyte 1,0.0 nA
same,Raw data (Responses in nA) Oocyte 2,AaegOR8; oocyte 2,0.0 nA
same,Raw data (Responses in nA) Oocyte 3,AaegOR8; oocyte 3,0.0 nA
same,Raw data (Responses in nA) Oocyte 4,AaegOR8; oocyte 4,0.0 nA
same,Raw data (Responses in nA) Oocyte 5,AaegOR8; oocyte 5,0.0 nA
same,Raw data (Responses in nA) Oocyte 6,AaegOR8; oocyte 6,0.0 nA
same,Raw data (Responses in nA) Oocyte 7,AaegOR8; oocyte 7,0.0 nA
same,Raw data (Responses in nA) Oocyte 8,AaegOR8; oocyte 8,0.0 nA
CC(=O)OCCC(C)C [Isomyl acetate],"Normalized response, Average, unitary compounds of blend Terpenes 3",AaegOR11,0.0
same,"Raw data (Responses in nA), unitary compounds of blend Terpenes 3",AaegOR11,0 nA
same,"Normalized response, unitary compounds of blend Terpenes 3",AaegOR11,0.0
